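Exposure lasted 48 hours, with cells grown in 96-well plates and compounds tested at five concentrations. TGI: total growth inhibition.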
Columns and labels:
Experiment in all cases: NCI anticancer screen, dose series, 48 h
[1] = test system: TK-10 renal
[2] = test system: CCRF-CEM leukemia
[3] = test system: HOP-62 NSCLC
[4] = test system: T-47D breast
[5] = test system: HCC-2998 colon
[6] = test system: OVCAR-3 ovarian
[7] = test system: PC-3 prostate
[8] = test system: MDA-MB-231 breast
[9] = test system: SNB-75 CNS
[10] = test system: SNB-19 CNS
[11] = test system: RPMI-8226 leukemia
[12] = test system: NCI-H23 lung
[13] = test system: A498 renal
[14] = test system: IGROV1 ovarian
[15] = test system: KM12 colon
[16] = test system: DU-145 prostate
[17] = test system: SK-MEL-28 melanoma
[18] = test system: SK-OV-3 ovarian

Structure (SMILES)	TGI [1] [µM]	TGI [2] [µM]	TGI [3] [µM]	TGI [4] [µM]	TGI [5] [µM]	TGI [6] [µM]	TGI [7] [µM]	TGI [8] [µM]	TGI [9] [µM]	TGI [10] [µM]	TGI [11] [µM]	TGI [12] [µM]	TGI [13] [µM]	TGI [14] [µM]	TGI [15] [µM]	TGI [16] [µM]	TGI [17] [µM]	TGI [18] [µM]
COc1ccc(/C=C/c2cc(=O)cc(/C=C/c3ccc(OC)c(O)c3)o2)cc1O	16.9	5.91	12.2	10.8	3.32	6.51	12.3	5.73	22.6	> 39	1.99	5.8	9.43	13.3	4.26	> 29.3	> 100	21.7
Fc1ccc(C(OCCN2CC3CC2CN3CCCc2ccccc2)c2ccc(F)cc2)cc1 (stereo unspecified)	23.7	21.7	29.1	7.21	5.7	25.5	17.7	15.7	7.2	27.3	6.54	23.8	18.3	22.7	21.2	24.3	9.09	31.7

Reference: PubChem BioAssay (NCI)
